Earlier results on 1 molecule are cited in US20210147810A1, “SINGLE LUNG CELL-DERIVED ORGANOIDS” (Rutgers, The State University of New Jersey, priority 2017, published 2021).

For the data set, the system named is PTPRT-mutant NSCLC. The note with it: in vivo.

Take `CC(=O)c1cc2c(o1)C(=O)c1ccccc1C2=O` [BBI608]: the anti-tumor activity result is listed as “effective anti-tumor activity”.
